Data: patent US8039439B2, “Cellular cycle anomalies for targeting oncology and neurodegeneration” (priority 2005, dated 2011)

Experiments:
LIV21 = experiment: Nuclear translocation of LIV21 in MCF-7 cells (Western blotting of extracts/fractions, immunocytochemistry); type: cell-based, human
Method: The results obtained by flow cytometry led the inventor to study, in parallel, the expression of LIV21 in nuclear extracts prepared after 12 h, 24 h, 48 h and 72 h of TPA treatment (FIG. 16A). […] It lasts until the reinitiation of the cell cycle observed at 72 h.
However, it is interesting to note that the expression of LIV21 already begins from 1 h of treatment in certain cells, since they are not synchronous.
The effect of the selective inhibition of the activity of PKC∈ on the nuclear translocation of LIV21 was studied by immunocytochemistry. These experiments were carried out on nontreated cultures or cultures treated for 12 h with TPA at 25 nM or with the peptide at two different concentrations, 1 and 2 μM (FIG. 20).
(§1) The protein extracts are heated at 80° C. for 5 minutes in a Laemmli buffer (pH 7.4, 0.06 M Tris, 3% SDS, 10% glycerol, 1 nM PMSF, β-mercaptoethanol). The migration is carried out by SDS-PAGE (sodium dodecyl sulfate-polyacrylamide gel electrophoresis). 10 to 20 μg of proteins migrate in a 12% polyacrylamide gel for 1 h under denaturing conditions (migration buffer: 25 mM Tris base, 192 mM glycine, 1% SDS, pH 8.3). The proteins are then transferred onto a nitrocellulose membrane (Schleicher & Schuell) for one hour by liquid transfer, in a transfer membrane (25 mM Tris, 192 mM glycine, 20% methanol, pH 8.3). The membranes, saturated in PBS-0.1% Tween-0.1% Triton X100-5% skimmed milk for one hour, are brought into contact with the primary antibody diluted in PBS-0.1% Tween-0.1% Triton X100-1% milk at ambient temperature with gentle agitation for one hour to two hours. After washing, the peroxidase-coupled secondary antibody is incubated with the membranes for 1 h. Revelation is carried out by means of a chemiluminescence reaction using the ECL kit according to the supplier's protocol (Amersham).

MCF-7 line = details: literature description; cited from earlier work
PKC∈ = PKC∈ expression in MCF-7 cells (Western blotting, immunofluorescence); type: cell-based, human; details: TPA 25 nM
Method: Western blotting study: Given that the protein sequence of LIV21 has putative PKC phosphorylation sites, including two specific for PKC∈, the inventor tested the variation in the expression of this PKC as a function of the duration of TPA treatment. […] The expression of PKCzeta (PKCζ) is used as an internal control since it is not sensitive to TPA.
as §1, with “Revelation is carried out by means of a chemiluminescence reaction using the ECL kit according to the supplier's protocol (Amersham).” left out

MCF-7 cells [1] = experiment: Cell growth monitoring (counting) and morphology of MCF-7 cultures with or without TPA; type: cell-based, human; details: TPA 25 nM
Method: It has been described in the literature that TPA induces the arrest of proliferation and the differentiation of tumor cells of the MCF-7 line. In order to validate the culture conditions, the cell growth was monitored (by counting) beforehand over three days of culture in the presence or absence of TPA at a concentration of 25 nM (FIG. 14).
However, in the period of time over which the cells were studied, the secretory phenotype (appearance of granules and of secretory canaliculi) was not observed.

MCF-7 cells [2] = experiment: FACS analysis of cell cycle phases in TPA-treated MCF-7 cells; type: cell-based, human
Method: However, without any further addition of TPA, the number of cells in the S phase increases again so as to return to the initial state at 72 h of treatment. G2/M phase: The number of cells in the G2/M phase increases from the beginning of the treatment, with a maximum observed at 12 hours (FIG. 15B). G0/G1 phase: The number of cells in the G0/G1 phase is at a minimum at 6 hours and at a maximum at 24 hours (FIG. 15C).
A maximum of cells in the S phase are therefore observed in the early periods of the kinetics (0 h to 6 h), a maximum of cells in the G2/M phase is observed at 12 h and, finally, a maximum of cells in the G0/G1 phase is observed at 24 h. Finally, without any further addition of TPA, the cells return to the S phase at 72 h.

| Molecule | nuclear translocation of LIV21 (immunocytochemistry) (LIV21; peptide 1 μM, 12 h) | nuclear translocation of LIV21 (immunocytochemistry) (LIV21; peptide 2 μM, 12 h, compared with TPA 25 nM) | nuclear translocation of LIV21 (immunocytochemistry) (LIV21; peptide 2 μM, 12 h, compared with TPA 25 nM, listed as PKCε-inhibiting peptide) | LIV21 expression profile in cytoplasmic and nuclear fractions (cell fractionation, Western blot) (LIV21; peptide 2 μM, 12 h, compared with TPA-treated cultures) | proliferation of cells of human mammary tumor lines such as MCF-7 (MCF-7 line) | PKC∈ localization (immunofluorescence) (PKC∈; 12 h) | PKC∈ expression (Western blotting, total extracts) (PKC∈; as a function of duration of treatment) | cell morphology / differentiation (MCF-7 cells [1]) | number of cells in control cultures relative to treated cultures (MCF-7 cells [1]; after 3 days of treatment) | cell proliferation (cell counts) (MCF-7 cells [1]; three days of culture) | colocalization of PML and LIV21 (double labeling) (LIV21; 24 h of TPA treatment (25 nM)) | time of maximum nuclear translocation of LIV21 (immunocytochemistry) (LIV21; TPA 25 nM) [h] | anti-LIV21 immunoreactivity in nuclear extracts (Western blot) (LIV21; TPA 25 nM, 12 h, 24 h, 48 h and 72 h) | time of optimal reduction of the number of cells in the S phase (MCF-7 cells [2]; TPA 25 nM, single addition) [h] | time of maximum number of cells in the G0/G1 phase (MCF-7 cells [2]; TPA treatment) [h] | time of maximum number of cells in the G2/M phase (MCF-7 cells [2]; TPA treatment) [h] | time of minimum number of cells in the G0/G1 phase (MCF-7 cells [2]; TPA treatment) [h] | time at which cells reinitiate the cell cycle (MCF-7 cells [2]; after single addition of TPA) [h] |
| --- | --- | --- | --- | --- | --- | --- | --- | --- | --- | --- | --- | --- | --- | --- | --- | --- | --- | --- |
| EAVSLKPT (listed as Homo sapiens) [PKC∈-inhibiting peptide] | absence of nuclear translocation of LIV21 | effect identical to that of TPA | same effectiveness as | same LIV21 expression profile |  |  |  |  |  |  |  |  |  |  |  |  |  |  |
| CCCCCCCCCCCCCC(=O)O[C@@H]1[C@@H](C)[C@@]2(O)[C@@H](C=C(CO)C[C@]3(O)C(=O)C(C)=C[C@@H]23)[C@H]2C(C)(C)[C@]12OC(C)=O [TPA] |  |  |  |  | drastically inhibits the proliferation | disappears from the cytoplasm | decreases from 30 min | rapidly acquire characteristics of differentiated mammary gland cells | twice as many cells | clearly inhibits proliferation | colocalized in the nuclei | 12 | maximum anti-LIV21 immunoreactivity was observed from 12 h, was maintained up to 48 h | 12 | 24 | 12 | 6 | 72 |
